# Measurements from patent publication US11571433B2, “Methods for treating memory impairment and cognitive dysfunction” (CARMEL HAIFA […] CORPORATION LTD., priority 2018, dated 2023).
# Key:
# [1] = tested on: Hippocampal slices from AS mice; assay: High frequency stimulation LTP (fEPSP slope) in area CA1 of hippocampal slices; format: cell-based, mouse; conditions: for LTP deficit after high frequency stimulation: AS mice hippocampal slices, MBG 0.5 μM 20 min before, during and 20 min after tetanization, vs vehicle
# Description: Electrophysiology: Hippocampal slices were prepared from wild-type and AS model mice as previously described (Kaphzan et al., 2012; Kaphzan et al., 2013). LTP was induced in area CA1 with high frequency stimulation (HFS) by delivering two 100 Hz trains of HFS with an intertrain interval of 20 sec. The initial slope of the field excitatory postsynaptic potential (fEPSP) for each experiment was expressed as the ratio to the average baseline response prior to delivery of HFS.
# (§1) Drug handling: Marinobufagenin was kept in stock solution (1 mg/10 ml) in 0.5% DMSO and was freshly diluted to the required concentration 0.042 mg/mL by saline prior to the experiment. At this stock concentration a volume of 100 μL for 16 days in a rate of 0.25 μL/hour correlated to approximately 10 μg/kg/day for a mouse of 25 grams. The exact concentration was calculated for each mouse according to its body weight. As a vehicle 1:200 stock solution of DMSO in water (the maximal concentration of DMSO matched to the maximal dose of MBG, i.e. 10 μg/kg/day) was used. For delivery via osmotic pumps only mice that weigh more than 20 g were used. For LTP studies, marinobufagenin was kept at 100 mM stock solution in DMSO and was freshly dissolved in 1:100,000 carboxygenated artificial cerebrospinal fluid to the final concentration of 1 μM. For chronic injections Alzet osmotic pumps filled with marinobufagenin were used as described (Elkareh et al., 2007; Fedorova et al., 2009; Kennedy et al., 2006; Liu et al., 2012; Yoshika et al., 2007).
# Hippocampal slices from WT and AS mice were stimulated with a single train of high frequency stimulation (1 sec 100 Hz-indicated by an arrow). Some of the AS slices were treated with either vehicle or MBG 0.5 μM 20 min before, during and 20 min after tetanization. WT vehicle: mice n=3, slices n=6; AS vehicle: mice n=2, slices n=4; AS MBG: mice n=2, slices n=4. P<0.05 for interaction of time and treatment in 2-way RM-ANOVA. Sample traces 1-baseline, 2-20 min after HFS.
# [2] = tested on: CA1 pyramidal cells; assay: Whole cell recordings of resting membrane potential of CA1 pyramidal cells in hippocampal slices; format: cell-based; conditions: MBG 10 μM, 10 min incubation; AS mouse vs WT littermate; P=0.07
# Description: The effect of a1-NaKA inhibition with MBG 10 μM on the resting membrane potential was tested (FIG. 2). Hippocampal slices were incubated for 10 min with MBG 10 μM. Whole cell recordings of CA1 pyramidal cells show a larger effect on the resting membrane potential of AS mouse compared to a WT littermate. WT 1 mouse, cells n=4. AS: 1 mouse cells n=5. P=0.07 for the interaction in 2 way RM-ANOVA.
# [3] = target: T1, a1-NaKA (Mus musculus, UniProt Q8VDN2); assay: Inhibition of a1-NaKA; conditions: 0.5 μM MBG
# T1 construct: Hippocampal slices from WT and AS mice were stimulated; from tissue; host or cells: mouse hippocampal slices (WT and Angelman syndrome model mice)
# [4] = tested on: AS model mice; assay: Contextual fear conditioning; format: in vivo, mouse; conditions: IP infusion 10 μg/kg/day by osmotic pump, started 2 weeks before conditioning, tested 24 hours after training
# Description: as §1
# Contextual fear conditioning: Mice were placed into a standard conditioning chamber and given a two-sec scrambled foot shock (0.75 mA) twice, two minutes and four minutes after session onset. […] The occurrence of freezing was measured every 10 seconds throughout training. […] The occurrence of freezing was measured every 10 sec throughout testing. […]
# [5] = tested on: AS model mice; assay: Morris water maze; format: in vivo, mouse; conditions: chronic MBG infusion
# Description: as §1
# Morris water maze: MWM experiments were performed as previously described (Kaphzan et al., 2013). […] The animals' trajectories, escape latencies, number of previous platform position crossing, time spent in each quadrant, and swim speed were recorded with a computerized video-tracking system (Noldus EthoVision).
smiles,measurement,setting,value
"C[C@]12CC[C@H](O)C[C@@]1(O)CC[C@@H]1[C@@H]2CC[C@]2(C)[C@@H](c3ccc(=O)oc3)C[C@H]3O[C@]132 [MBG, 3-beta,5-dihydroxy-14,15-beta-epoxy-5-beta-bufa-20,22-dienolide]",HFS-LTP impairment,[1]; AS hippocampal slices incubated with MBG 1 μM,rescue of the impaired LTP phenotype
same,LTP deficit after high frequency stimulation,[1],induced a recovery of LTP deficit
same,LTP deficit after high frequency stimulation,[1]; listed as marinobufagenin,correction of long-term potentiation defects
same,baseline synaptic transmission,[1]; hippocampal slices incubated with MBG 1 μM,no effect on baseline synaptic transmission
same,baseline synaptic transmission,"[1]; hippocampal slices, MBG 0.5 μM",did not affect baseline synaptic transmission
same,effect on resting membrane potential,[2],larger effect in AS mice than in wild-type littermates
same,Inhibition of a1-NaKA,[3],partial and mild
same,contextual fear memory,[4],corrects impaired contextual fear memory
same,visuospatial memory in the Morris water maze,[5],impairment is corrected
